Measurements taken from patent publication US6872690B2, “Herbicidal 2-alkynyl-pyri (mi) dines” (WYETH, priority 2001, dated 2005).

Legend:
Format in all cases: in vivo
[1] = system: Cassia obtusifolia; assay: Post-emergence herbicidal activity test; details: 2-4 weeks after treatment
Procedure: (§1) To evaluate their herbicidal activity, compounds according to the invention are tested using a representative range of plants:
(§2) These acetone solutions are diluted with water and the resulting formulations applied at dosage levels equivalent of about 0.025 to 0. 4 kg per hectare of test compound per pot. After spraying the plants are placed on greenhouse benches and are cared for in the usual manner, commensurate with conventional greenhouse practices. From 2 to 4 weeks after treatment, the seedling plants are examined and rated according to the rating system provided above.

[2] = system: Glycine max; assay: Post-emergence herbicidal activity test; details: 2-4 weeks after treatment
Procedure: as §1, §2

[3] = system: Abutilon theophrasti; assay: Post-emergence herbicidal activity test; details: 2-4 weeks after treatment
Procedure: as §1, §2

[4] = system: Echinochloa crus-galli; assay: Post-emergence herbicidal activity test; details: 2-4 weeks after treatment
Procedure: as §1, §2

[5] = system: Zea mays; assay: Post-emergence herbicidal activity test; details: 2-4 weeks after treatment
Procedure: as §1, §2

[6] = system: Digitaria sanguinalis; assay: Post-emergence herbicidal activity test; details: 2-4 weeks after treatment
Procedure: as §1, §2

[7] = system: Setaria viridis; assay: Post-emergence herbicidal activity test; details: 2-4 weeks after treatment
Procedure: as §1, §2

[8] = system: Ipomoea hederacea; assay: Post-emergence herbicidal activity test; details: 2-4 weeks after treatment
Procedure: as §1, §2

[9] = system: Orysa sativa; assay: Post-emergence herbicidal activity test; details: 2-4 weeks after treatment
Procedure: as §1, §2

[10] = system: Galium aparine; assay: Post-emergence herbicidal activity test; details: 2-4 weeks after treatment
Procedure: as §1, §2

[11] = system: Stellaria media; assay: Post-emergence herbicidal activity test; details: 2-4 weeks after treatment
Procedure: as §1, §2

[12] = system: Triticum aestivum; assay: Post-emergence herbicidal activity test; details: 2-4 weeks after treatment
Procedure: as §1, §2

[13] = system: Alopecurus myosuroides; assay: Post-emergence herbicidal activity test; details: 2-4 weeks after treatment
Procedure: as §1, §2

[14] = system: Matricaria inodora; assay: Post-emergence herbicidal activity test; details: 2-4 weeks after treatment
Procedure: as §1, §2

[15] = system: Cassia obtusifolia; assay: Pre-emergence test; details: 3 weeks after treatment
Procedure: as §1
(§3) The pre-emergence tests involve spraying a liquid formulation of the compound onto the soil in which the seeds of the plant species mentioned above has recently been sown.
(§4) The soil used in the tests is a prepared horticultural loam. The formulations used in the tests are prepared from solutions of the test compounds in acetone containing 0.4% by weight of an alkyl-phenol/ethylene oxide condensate available under the trade mark TRITON X-155. These acetone solutions are diluted with water and the resulting formulations applied at dosage levels corresponding to 0.013 kg, 0.025 kg, 0.100 kg or 0.400 kg of active material per hectare in a volume equivalent to 900 litres per hectare. In these tests untreated sown soil are used as controls. From 2 to 4 weeks after treatment, the tests are terminated and each pot is examined and rated according to the rating system set forth below: […]

[16] = system: Glycine max; assay: Pre-emergence test; details: 3 weeks after treatment
Procedure: as §1, §3, §4

[17] = system: Abutilon theophrasti; assay: Pre-emergence test; details: 3 weeks after treatment
Procedure: as §1, §3, §4

[18] = system: Echinochloa crus-galli; assay: Pre-emergence test; details: 3 weeks after treatment
Procedure: as §1, §3, §4

[19] = system: Lamium purpureum; assay: Pre-emergence test; details: 3 weeks after treatment
Procedure: as §1, §3, §4

[20] = system: Zea mays; assay: Pre-emergence test; details: 3 weeks after treatment
Procedure: as §1, §3, §4

[21] = system: Digitaria sanguinalis; assay: Pre-emergence test; details: 3 weeks after treatment
Procedure: as §1, §3, §4

[22] = system: Setaria viridis; assay: Pre-emergence test; details: 3 weeks after treatment
Procedure: as §1, §3, §4

[23] = system: Ipomoea hederacea; assay: Pre-emergence test; details: 3 weeks after treatment
Procedure: as §1, §3, §4

[24] = system: Orysa sativa; assay: Pre-emergence test; details: 3 weeks after treatment
Procedure: as §1, §3, §4

[25] = system: Galium aparine; assay: Pre-emergence test; details: 3 weeks after treatment
Procedure: as §1, §3, §4

[26] = system: Stellaria media; assay: Pre-emergence test; details: 3 weeks after treatment
Procedure: as §1, §3, §4

[27] = system: Triticum aestivum; assay: Pre-emergence test; details: 3 weeks after treatment
Procedure: as §1, §3, §4

[28] = system: Alopecurus myosuroides; assay: Pre-emergence test; details: 3 weeks after treatment
Procedure: as §1, §3, §4

[29] = system: Matricaria inodora; assay: Pre-emergence test; details: 3 weeks after treatment
Procedure: as §1, §3, §4

Q: With `COc1cc(C#Cc2ccccc2)nc(Oc2cc(C(F)(F)F)nn2C)c1` [Example 27] as the compound, how does the “Post-emergence application CASOB” value ([1]; 0.100 kg/ha) read?
A: 7 (7-Good herbicidal effect)

Q: What about the “Post-emergence application CASOB” value ([1]; 0.400 kg/ha) of the same compound?
A: 7 (7-Good herbicidal effect)

Q: And the “Post-emergence application GLXMA” value ([2]; 0.100 kg/ha)?
A: 4 (4-Injury)

Q: What about the “Post-emergence application GLXMA” value ([2]; 0.400 kg/ha) of the same compound?
A: 6 (6-Herbicidal effect)

Q: And the “Post-emergence application ABUTH” value ([3]; 0.100 kg/ha)?
A: 5 (5-Definite injury)

Q: What about the “Post-emergence application ABUTH” value ([3]; 0.400 kg/ha) of the same compound?
A: 6 (6-Herbicidal effect)

Q: And the “Post-emergence application ECHCG” value ([4]; 0.100 kg/ha)?
A: 5 (5-Definite injury)

Q: What about the “Post-emergence application ECHCG” value ([4]; 0.400 kg/ha) of the same compound?
A: 7 (7-Good herbicidal effect)

Q: And the “Post-emergence application ZEAMX” value ([5]; 0.100 kg/ha)?
A: 3 (3-Moderate effect)

Q: What about the “Post-emergence application ZEAMX” value ([5]; 0.400 kg/ha) of the same compound?
A: 3 (3-Moderate effect)

Q: And the “Post-emergence application DIGSA” value ([6]; 0.100 kg/ha)?
A: 4 (4-Injury)

Q: And the “Post-emergence application DIGSA” value ([6]; 0.400 kg/ha)?
A: 6 (6-Herbicidal effect)

Q: What about the “Post-emergence application SETVI” value ([7]; 0.100 kg/ha) of the same compound?
A: 7 (7-Good herbicidal effect)

Q: What about the “Post-emergence application SETVI” value ([7]; 0.400 kg/ha) of the same compound?
A: 8 (8-Approaching complete kill)

Q: What about the “Post-emergence application IPOHE” value ([8]; 0.100 kg/ha) of the same compound?
A: 6 (6-Herbicidal effect)

Q: What about the “Post-emergence application IPOHE” value ([8]; 0.400 kg/ha) of the same compound?
A: 6 (6-Herbicidal effect)

Q: And the “Post-emergence application ORYSA” value ([9]; 0.100 kg/ha)?
A: 3 (3-Moderate effect)

Q: What about the “Post-emergence application ORYSA” value ([9]; 0.400 kg/ha) of the same compound?
A: 3 (3-Moderate effect)

Q: What about the “Post-emergence application GALAP” value ([10]; 0.100 kg/ha) of the same compound?
A: 6 (6-Herbicidal effect)

Q: And the “Post-emergence application GALAP” value ([10]; 0.400 kg/ha)?
A: 7 (7-Good herbicidal effect)

Q: And the “Post-emergence application STEME” value ([11]; 0.100 kg/ha)?
A: 6 (6-Herbicidal effect)

Q: And the “Post-emergence application STEME” value ([11]; 0.400 kg/ha)?
A: 8 (8-Approaching complete kill)

Q: And the “Post-emergence application TRZWA” value ([12]; 0.100 kg/ha)?
A: 2 (2-Slight effect)

Q: And the “Post-emergence application TRZWA” value ([12]; 0.400 kg/ha)?
A: 3 (3-Moderate effect)

Q: What about the “Post-emergence application ALOMY” value ([13]; 0.100 kg/ha) of the same compound?
A: 6 (6-Herbicidal effect)

Q: And the “Post-emergence application ALOMY” value ([13]; 0.400 kg/ha)?
A: 8 (8-Approaching complete kill)

Q: And the “Post-emergence application MATIN” value ([14]; 0.100 kg/ha)?
A: 5 (5-Definite injury)

Q: And the “Post-emergence application MATIN” value ([14]; 0.400 kg/ha)?
A: 7 (7-Good herbicidal effect)

Q: And the “Assessment (pre-emergence application) CASOB” value ([15]; 0.025 kg/ha)?
A: 7 (7-Good herbicidal effect)

Q: What about the “Assessment (pre-emergence application) CASOB” value ([15]; 0.400 kg/ha) of the same compound?
A: 8 (8-Approaching complete kill)

Q: And the “Assessment (pre-emergence application) GLXMA” value ([16]; 0.025 kg/ha)?
A: 2 (2-Slight effect)

Q: What about the “Assessment (pre-emergence application) GLXMA” value ([16]; 0.100 kg/ha) of the same compound?
A: 2 (2-Slight effect)

Q: What about the “Assessment (pre-emergence application) GLXMA” value ([16]; 0.400 kg/ha) of the same compound?
A: 3 (3-Moderate effect)

Q: What about the “Assessment (pre-emergence application) ABUTH” value ([17]; 0.025 kg/ha) of the same compound?
A: 5 (5-Definite injury)

Q: And the “Assessment (pre-emergence application) ABUTH” value ([17]; 0.100 kg/ha)?
A: 5 (5-Definite injury)

Q: And the “Assessment (pre-emergence application) ABUTH” value ([17]; 0.400 kg/ha)?
A: 8 (8-Approaching complete kill)

Q: And the “Assessment (pre-emergence application) ECHCG” value ([18]; 0.025 kg/ha)?
A: 3 (3-Moderate effect)

Q: And the “Assessment (pre-emergence application) ECHCG” value ([18]; 0.100 kg/ha)?
A: 4 (4-Injury)

Q: And the “Assessment (pre-emergence application) ECHCG” value ([18]; 0.400 kg/ha)?
A: 7 (7-Good herbicidal effect)

Q: And the “Assessment (pre-emergence application) LAMPU” value ([19]; 0.025 kg/ha)?
A: 8 (8-Approaching complete kill)

Q: And the “Assessment (pre-emergence application) LAMPU” value ([19]; 0.100 kg/ha)?
A: 8 (8-Approaching complete kill)

Q: And the “Assessment (pre-emergence application) LAMPU” value ([19]; 0.400 kg/ha)?
A: 9 (9-Complete kill)

Q: What about the “Assessment (pre-emergence application) ZEAMX” value ([20]; 0.025 kg/ha) of the same compound?
A: 1 (1-Trace effect)

Q: What about the “Assessment (pre-emergence application) ZEAMX” value ([20]; 0.100 kg/ha) of the same compound?
A: 2 (2-Slight effect)

Q: And the “Assessment (pre-emergence application) ZEAMX” value ([20]; 0.400 kg/ha)?
A: 3 (3-Moderate effect)

Q: And the “Assessment (pre-emergence application) DIGSA” value ([21]; 0.025 kg/ha)?
A: 6 (6-Herbicidal effect)

Q: And the “Assessment (pre-emergence application) DIGSA” value ([21]; 0.100 kg/ha)?
A: 6 (6-Herbicidal effect)

Q: And the “Assessment (pre-emergence application) DIGSA” value ([21]; 0.400 kg/ha)?
A: 8 (8-Approaching complete kill)

Q: What about the “Assessment (pre-emergence application) SETVI” value ([22]; 0.025 kg/ha) of the same compound?
A: 5 (5-Definite injury)

Q: And the “Assessment (pre-emergence application) SETVI” value ([22]; 0.100 kg/ha)?
A: 8 (8-Approaching complete kill)

Q: What about the “Assessment (pre-emergence application) SETVI” value ([22]; 0.400 kg/ha) of the same compound?
A: 9 (9-Complete kill)

Q: What about the “Assessment (pre-emergence application) IPOHE” value ([23]; 0.025 kg/ha) of the same compound?
A: 3 (3-Moderate effect)

Q: What about the “Assessment (pre-emergence application) IPOHE” value ([23]; 0.100 kg/ha) of the same compound?
A: 4 (4-Injury)

Q: And the “Assessment (pre-emergence application) IPOHE” value ([23]; 0.400 kg/ha)?
A: 6 (6-Herbicidal effect)

Q: And the “Assessment (pre-emergence application) ORYSA” value ([24]; 0.025 kg/ha)?
A: 0 (0-No effect)

Q: And the “Assessment (pre-emergence application) ORYSA” value ([24]; 0.100 kg/ha)?
A: 1 (1-Trace effect)

Q: And the “Assessment (pre-emergence application) ORYSA” value ([24]; 0.400 kg/ha)?
A: 1 (1-Trace effect)

Q: What about the “Assessment (pre-emergence application) GALAP” value ([25]; 0.025 kg/ha) of the same compound?
A: 1 (1-Trace effect)

Q: And the “Assessment (pre-emergence application) GALAP” value ([25]; 0.100 kg/ha)?
A: 2 (2-Slight effect)

Q: And the “Assessment (pre-emergence application) GALAP” value ([25]; 0.400 kg/ha)?
A: 6 (6-Herbicidal effect)

Q: What about the “Assessment (pre-emergence application) STEME” value ([26]; 0.025 kg/ha) of the same compound?
A: 9 (9-Complete kill)

Q: And the “Assessment (pre-emergence application) STEME” value ([26]; 0.100 kg/ha)?
A: 9 (9-Complete kill)

Q: And the “Assessment (pre-emergence application) STEME” value ([26]; 0.400 kg/ha)?
A: 9 (9-Complete kill)

Q: And the “Assessment (pre-emergence application) TRZWA” value ([27]; 0.025 kg/ha)?
A: 1 (1-Trace effect)

Q: What about the “Assessment (pre-emergence application) TRZWA” value ([27]; 0.100 kg/ha) of the same compound?
A: 2 (2-Slight effect)

Q: And the “Assessment (pre-emergence application) TRZWA” value ([27]; 0.400 kg/ha)?
A: 3 (3-Moderate effect)

Q: What about the “Assessment (pre-emergence application) ALOMY” value ([28]; 0.025 kg/ha) of the same compound?
A: 2 (2-Slight effect)

Q: What about the “Assessment (pre-emergence application) ALOMY” value ([28]; 0.100 kg/ha) of the same compound?
A: 3 (3-Moderate effect)

Q: And the “Assessment (pre-emergence application) ALOMY” value ([28]; 0.400 kg/ha)?
A: 6 (6-Herbicidal effect)

Q: And the “Assessment (pre-emergence application) MATIN” value ([29]; 0.025 kg/ha)?
A: 8 (8-Approaching complete kill)

Q: And the “Assessment (pre-emergence application) MATIN” value ([29]; 0.100 kg/ha)?
A: 8 (8-Approaching complete kill)

Q: What about the “Assessment (pre-emergence application) MATIN” value ([29]; 0.400 kg/ha) of the same compound?
A: 8 (8-Approaching complete kill)
